The record followed here is patent publication US20100256147A1, “BIARYL ACETAMIDE DERIVATIVES AS MODULATORS OF THE KINASE CASCADE FOR THE TREATMENT OF HEARING LOSS, OSTEOPOROSIS AND CELL PROLIFERATION DISORDERS” (priority 2007, published 2010).

What all share (format): cell-based
Experiment [1] relates to c-Src527F/NIH 3T3. Put plainly: BrdU cell growth inhibition, c-Src527F/NIH 3T3. Conditions: Mus musculus, NIH3T3; c-Src527F/NIH 3T3 cells; read-out: c-Src527F/NIH 3T3 GI 50. Here is the method:
(§1) The GI50s for the compounds of the invention is assayed as described herein.
The c-Src 3T3 is a mouse fibroblast NIH 3T3 normal cell line that has been transfected with a point-mutant of human c-Src wherein tyrosine 527 has been converted to a phenylalanine. This mutation results in “constitutively active” c-Src because phosphorylation on tyrosine 527 results in auto-inhibition of Src by having it fold back on its own SH2 domain. With a Phe there, this phosphorylation can't occur and therefore auto-inhibition can't occur. Thus, the always fully active mutant Src then converts the normal mouse fibroblasts into rapidly growing tumor cells. […]
In the BrdU Assay for cell growth inhibition, quantitation of cell proliferation is based on the measurement of BrdU incorporation during DNA synthesis. […]
The growth inhibition (G1) is determined from the formula G1=(T0−Tr×100/T0−CONn) where T0 is the BrdU growth of untreated cells at time “0”, Tn, is the BrdU growth of treated cells at day “n” and CONn is the control BrdU growth of control cells at day “n”. […]
(§2) Seeded 96 well plates are allowed to attach overnight for 18-24 hours, either at 37° C. and 5% CO2 for HT-29 or at 37° C. and 10% CO2 for c-Src 3T3. Approx 18-24 hours after seeding, the initial growth of cells (T0) is determined for untreated cells using the BrdU assay. […] Plates are assayed for BrdU and the data is analyzed as above for GI50.

In experiment [2] the test system is Ba/F3-JAK3. Put plainly: Ba/F3-JAK3 cell growth inhibition. The settings on record: Ba/F3-JAK3 cells.
Experiment [3] relates to Ba/F3-JAK2. Put plainly: Ba/F3-JAK2 cell growth inhibition. The settings on record: Ba/F3-JAK2 cells.
Experiment [4] has as its system HT29. Put plainly: BrdU cell growth inhibition, HT29. The settings on record: Homo sapiens, HT-29; HT29 cells; read-out: HT29 GI 50. As to the method: as §1
The HT29 cell line is a NCI standard human colon carcinoma cell line. HT-29 cells are obtained from ATCC at passage 125 and are used for inhibition studies between passage 126-151. HT29 cells are routinely cultured in McCoy's 5A medium supplemented with Fetal Bovine Serum (1.5% v/v) and L-glutamine (2 mM).
In the BrdU Assay for cell growth inhibition, quantitation of cell proliferation is based on the measurement of BrdU incorporation during DNA synthesis. The Cell Proliferation ELISA BrdU assay kit (colorimetric) is obtained from Roche Applied Science and performed as per vendor instructions.
The growth inhibition (G1) is determined from the formula G1=(T0−Tr×100/T0−CONn) where T0 is the BrdU growth of untreated cells at time “0”, Tn, is the BrdU growth of treated cells at day “n” and CONn is the control BrdU growth of control cells at day “n”. The GI50 is extrapolated and the data plotted using XL-Fit 4.0 software. […]
as §2

The subject of experiment [5] is ACHN. Put plainly: Tumor growth inhibition, ACHN. The settings on record: Homo sapiens, read-out: Dasatinib GI50, renal cell adenocarcinoma.
Experiment [6] deals with Caki-2. Put plainly: Tumor growth inhibition, Caki-2. Conditions: Homo sapiens, read-out: Dasatinib GI50; Caki-2, clear cell carcinoma.
The subject of experiment [7] is 786-O. Put plainly: Tumor growth inhibition, 786-O. The settings on record: Homo sapiens, 786-0, read-out: Dasatinib GI50, renal cell adenocarcinoma.
For experiment [8], the system named is HuH7. Put plainly: MTT growth inhibition, HuH7. The settings on record: Homo sapiens, Huh-7, 8.0×10^3 cells/wells, 1.5% FBS, 78 Hr, normalized response data. Here is the method: Samples of the test compounds are formulated in 100% DMSO to obtain 20 mM stock solutions; stored @ 4° C. The IC50s and IC80s are determined as described below. Huh7, WRL-68, PLC/PRF/5, Hep 3B, and Hep G2 human cancer lines are routinely cultured and maintained in a basal medium containing 2% FBS @ 37° C., 5% CO2. Cells are seeded @ 4.0×10^3/190 μl and 8.0×10^3/190 μl per well of a 96-well plate. The assay medium is basal medium/1.5% FBS. […] The test article dilutions are prepared as follows: 20 mM stock solution samples are diluted serially in basal medium/1.5% FBS using 1:3 dilutions, yielding 20× concentrations; 131 μM to 0.24 nM range. 10 μL of 20× dilutions are added to the appropriate wells (n=3) containing 190 μL cancer cell line; 6561 nM to 0.012 nM range of final concentrations. Vehicle control contains cells, no sample. Medium control contains cells, no sample, 0.03% DMSO (highest DMSO concentration present in samples). The treated cells are incubated for 72 hours at 37° C., 5% CO2. On day 3, 10 μL MTT (5 mg/mL) are added to each well. Cells are incubated in the presence of MTT for 4 hours @ 37° C., 5% CO2. 90 μL 10% SDS(+HCl) is added to each well to lyse cells and solubilize formazan. […] OD570 measurements are taken, e.g., using BioTek Synergy HT multiplatform microplate reader. Growth inhibition curves IC50s and IC80s are determined using GraphPad Prism 5 statistical software.

The test system of experiment [9] is PLC/PRF/5. The experiment in a line: MTT growth inhibition, PLC/PRF/5. Conditions: Homo sapiens, 8.0×10^3 cells/wells, 1.5% FBS, 78 Hr, normalized response data. As to the method:
(§3) Samples of the test compounds are formulated in 100% DMSO to obtain 20 mM stock solutions; stored @ 4° C. The IC50s and IC80s are determined as described below. Huh7, WRL-68, PLC/PRF/5, Hep 3B, and Hep G2 human cancer lines are routinely cultured and maintained in a basal medium containing 2% FBS @ 37° C., 5% CO2. Cells are seeded @ 4.0×10^3/190 μl and 8.0×10^3/190 μl per well of a 96-well plate. The assay medium is basal medium/1.5% FBS. […] The test article dilutions are prepared as follows: 20 mM stock solution samples are diluted serially in basal medium/1.5% FBS using 1:3 dilutions, yielding 20× concentrations; 131 μM to 0.24 nM range. 10 μL of 20× dilutions are added to the appropriate wells (n=3) containing 190 μL cancer cell line; 6561 nM to 0.012 nM range of final concentrations. Vehicle control contains cells, no sample. Medium control contains cells, no sample, 0.03% DMSO (highest DMSO concentration present in samples). The treated cells are incubated for 72 hours at 37° C., 5% CO2. On day 3, 10 μL MTT (5 mg/mL) are added to each well. Cells are incubated in the presence of MTT for 4 hours @ 37° C., 5% CO2. 90 μL 10% SDS(+HCl) is added to each well to lyse cells and solubilize formazan.

The test system of experiment [10] is Hep 3B. Put plainly: MTT growth inhibition, Hep 3B. Conditions: Homo sapiens, Hep3B, 8.0×10^3 cells/wells, 1.5% FBS, 78 Hr, normalized response data. As to the method: as §3
Experiment [11] has as its system 769-P. The experiment in a line: Tumor growth inhibition, 769-P. Conditions: Homo sapiens, read-out: Dasatinib GI50, renal cell adenocarcinoma.
Experiment [12] relates to known Src protein substrates. Put plainly: Phosphorylation of Src substrates in c-Src (527F) transformed NIH3T3 cells. As to the method: (§4) Compounds of the invention may be Src signaling inhibitors that bind in the Src peptide substrate site. The activity of various compounds of the invention has been studied in c-Src (527F, constitutively active and transforming) transformed NIH3T3 cells and in human colon cancer cells (HT29).
(§5) HT29 (colon cancer) and c-Src527F/NIH-3T3 (Src transformed) cell lines are treated with a compound of the invention or with AstraZeneca's ATP competitive Src inhibitor AZ28 (KX2-328). AZ28 serves as a positive comparator to show what a validated Src inhibitor should do in these assays. After treatment with compound, cells are lysed, subjected to PAGE and probed with a battery of antibodies. […] In addition, off-target protein phosphorylation is also investigated. Further, induction of apoptosis is evaluated via Caspase 3 cleavage. Multiple doses of each compound are tested because the trends in response to increasing drug concentration are the most reliable indicator of activity.
(§6) A dose response curve is generated using the GI50 for the compounds of the invention in each of the two cell lines as the 1× concentration. […] The same range of multiples of the GI50 for AZ28 in these two cell lines are run as a comparison.

In experiment [13] the test system is known Src protein substrates. Put plainly: Phosphorylation of Src substrates in HT29 cells. Conditions: human colon cancer cells (HT29). Here is the method: as §4, §5, §6

For orientation: IC50 means the concentration at which inhibition is half-maximal. For the molecule `C[C@@H](NC(=O)Cc1ccc(-c2ccc(OCCN3CCOCC3)cc2F)nc1)C1CCCCC1`, the GI50 in experiment [1] came to 1230 nM; in experiment [4], 1060 nM. For the same molecule, the IC50 in experiment [2] worked out at 1290 nM; in experiment [3], 2080 nM.
In the case of `O=C(Cc1ccc(-c2ccc(OCCN3CCOCC3)cc2F)nc1)NCCC1CCCC1`, the GI50 in experiment [1] was 1160 nM; in experiment [4], 1230 nM. The IC50 was 1200 nM in experiment [2] and 1320 nM in experiment [3].
A word on the IC80: it is the concentration at which the effect reaches the 80% level. With `Cc1nc(Nc2ncc(C(=O)Nc3c(C)cccc3Cl)s2)cc(N2CCN(CCO)CC2)n1` [Dasatinib], the GI50 in experiment [5] was 21.1 nM; in experiment [6], 14.2 nM; in [7], 2010 nM; in experiment [11], 46.3 nM. The IC50 in [8] came to 1970 nM. The 80% effect concentration (IC80) in experiment [8] was 7140 nM; in experiment [9], greater than 50000 nM; in experiment [10], greater than 50000 nM.
As to `O=C(Cc1ccc(-c2ccc(OCCN3CCOCC3)cc2)cn1)NCc1ccccc1` [KX2-391], the “phosphorylation level of known Src protein substrates” value in [12] and in experiment [13] was “reduce the phosphorylation level of known Src protein substrates in a dose-dependent fashion” throughout.
